Consider 34 compounds from US6875760B2 (Novo Nordisk A/S, priority 1999, dated 2005).

The target of the first experiment is T1, cloned human glucagon receptor (Homo sapiens, UniProt P47871).
T1 construct: expressed in transfected cells; plasma membrane preparation
T1 sequence (P47871 26-477): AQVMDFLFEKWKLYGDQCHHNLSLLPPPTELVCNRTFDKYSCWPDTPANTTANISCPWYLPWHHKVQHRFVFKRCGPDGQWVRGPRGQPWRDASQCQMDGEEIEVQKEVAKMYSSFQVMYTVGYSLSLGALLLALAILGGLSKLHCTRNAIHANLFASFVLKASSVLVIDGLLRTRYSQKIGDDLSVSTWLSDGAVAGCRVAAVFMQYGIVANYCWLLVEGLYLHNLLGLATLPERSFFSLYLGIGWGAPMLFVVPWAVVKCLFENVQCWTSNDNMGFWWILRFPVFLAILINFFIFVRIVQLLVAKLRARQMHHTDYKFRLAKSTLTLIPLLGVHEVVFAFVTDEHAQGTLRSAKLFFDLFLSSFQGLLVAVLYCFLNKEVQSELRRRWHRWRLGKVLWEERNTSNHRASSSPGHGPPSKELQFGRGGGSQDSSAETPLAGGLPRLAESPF
The experiment can be described thus: Glucagon Binding Assay (II).
Conditions: not given
Compound `CC(C)(C)C1CCC(N(Cc2ccc(C(=O)NCCC(=O)O)cc2)C(=O)Nc2ccc(Cl)c(Cl)c2)CC1` (stereo not shown) [drawing 1169] showed a half-inhibitory concentration (IC50) of 226 nM.

The experiment is the same for the next values; noted with them: plasma membranes of BHK cells expressing the receptor; read-out: Glu Bd Assay (II) IC50.
For `O=C(Nc1nn[nH]n1)c1ccc(CN(C(=O)Nc2ccc(OC(F)(F)F)cc2)[C@H]2CC[C@@H](C3CCCCC3)CC2)cc1` [Example 575, 4-[1-(4-cis-Cyclohexylcyclohexyl)-3-(4-trifluoromethoxyphenyl)ureidomethyl]-N-(2H-tetrazol-5-yl)benzamide], the 50% inhibitory concentration (IC50) is 15 nM. `O=C(O)CCNC(=O)c1ccc(CN(Cc2cccc(Br)c2)c2ccc(C3CCCCC3)cc2)cc1` [Example 581, 3-(4-{[(3-Bromobenzyl)-(4-cyclohexylphenyl)amino]methyl}benzoylamino)propionic acid]: the IC50 came out at 142 nM. As to `CC1CCC(N(Cc2ccc(C(=O)NCCC(=O)O)cc2)C(=O)Nc2ccc(-c3ccccc3)cc2)CC1` (stereo not shown), the concentration for half-maximal inhibition (IC50) stood at 516 nM.

On to `O=C(Nc1nn[nH]n1)c1ccc(CN(Cc2ccc(OC(F)(F)F)cc2)[C@H]2CC[C@@H](C3CCCCC3)CC2)cc1` [Example 572, 4-({(4-cis-Cyclohexylcyclohexyl)-[4-(trifluoromethoxy)benzyl]amino}methyl)-N-(2H-tetrazol-5-yl)benzamide], for which the 50% inhibitory concentration (IC50) came to 166 nM. Regarding `CC(C)(C)[C@H]1CC[C@H](N(Cc2ccc(C(=O)NCCC(=O)O)cc2)Cc2cc(Cl)cc(Cl)c2)CC1` [Example 580, 3-(4-{[(trans-4-tert-Butylcyclohexyl)-(3,5-dichlorobenzyl)amino]methyl}benzoylamino)propionic acid], the IC50 came out at 57 nM.

Take `C[C@H](NC(=O)N(Cc1ccc(C(=O)NCCC(=O)O)cc1)c1ccc(C2CCCCC2)cc1)c1ccccc1` [Example 609, 3-{4-[1-(4-Cyclohexylphenyl)-3-((1S)-1-phenylethyl)ureidomethyl]benzoylamino}propionic acid]: the 50% inhibitory concentration (IC50) turned out to be 726 nM.

On to `C[C@H](C1CCCCC1)N(Cc1ccc(C(=O)NCCC(=O)O)cc1)C(=O)Nc1ccc2ccccc2c1` [Example 109, 3-{4-[1-((1R)-1-Cyclohexylethyl)-3-naphthalene-2-ylureidomethyl]benzoylamino)propionic acid], for which the IC50 was 916 nM. Regarding `O=C(O)CCNC(=O)c1ccc(CN(C(=O)Nc2ccc3[nH]ccc3c2)c2ccc(C3CCCCC3)cc2)cc1` [Example 607, 3-{4-[1-(4-Cyclohexylphenyl)-3-(1H-indol-5-yl)ureidomethyl]benzoylamino}propionic acid], the half-maximal inhibitory concentration (IC50) amounted to 1850 nM. `CCOC(=O)C(C)(C)C1CCC(N(Cc2ccc(C(=O)NCCC(=O)O)cc2)C(=O)Nc2ccc(OC(F)(F)F)cc2)CC1` (stereo not shown) [Example 611, 2-{4-[1-[4-(2-Carboxyethylcarbamoyl)benzyl]-3-(4-trifluoromethoxyphenyl)ureido]cyclohexyl}-2-methylpropionic acid ethyl ester]: the IC50 stood at 437 nM. Regarding `O=C(O)CCNC(=O)c1ccc(CN(CCC(c2ccccc2)c2ccccc2)Cc2ccc3c(c2)OCO3)cc1` [Example 155, 3-(4-{[(3,3-Diphenylpropyl)-(3,4-methylenedioxybenzyl)amino]methyl}benzoylamino)propionic acid], the IC50 is 823 nM. `CC(C)(C)[C@H]1CC[C@H](N(Cc2ccc(C(=O)NCCC(=O)O)cc2)Cc2cccc(S(C)(=O)=O)c2)CC1` [Example 613, 3-(4-{[(trans-4-tert-Butylcyclohexyl)-(3-methylsulfonylbenzyl)amino]methyl}benzoylamino)propionic acid]: the concentration for half-maximal inhibition (IC50) is 578 nM. The same measure, in the same setting: the value for `O=C(O)CCNC(=O)c1ccc(CN(CCc2ccc(Cl)cc2)C(=O)Nc2ccc(OCc3ccccc3)cc2)cc1` was 400 nM; that for `O=C(Nc1nn[nH]n1)c1ccc(CN(Cc2cccc(Br)c2)c2ccc(C3CCCCC3)cc2)cc1` [Example 584, 4-{[(3-Bromobenzyl)-(4-cyclohexylphenyl)amino]methyl}-N-(2H-tetrazol-5-yl)benzamide] was 284 nM; that for `CC(C)(C)C1CCC(N(Cc2ccc(C(=O)NCCC(=O)O)cc2)C(=O)Nc2ccc(Cl)cc2)CC1` (stereo not shown) [Example 230, 3-{4-[1-(4-tert-Butylcyclohexyl)-3-(4-chlorophenyl)ureidomethyl]benzoylamino}propionic acid] was 229 nM.

Consider `CCCCOC(=O)c1ccc(NC(=O)N(Cc2ccc(C(=O)NCCC(=O)O)cc2)C2CCC(C)CC2)cc1` (stereo not shown), for which the IC50 was found to be 188 nM.

As for `N#Cc1ccc(NC(=O)N(Cc2ccc(C(=O)Nc3nn[nH]n3)cc2)c2ccc(C3CCCCC3)cc2)cc1C(F)(F)F` [Example 597, 4-[1-(4-Cyclohexylphenyl)-3-(4-cyano-3-trifluoromethylphenyl)ureidomethyl]-N-(2H-tetrazol-5-yl)benzamide], the IC50 came to 7 nM. With `CC(C)(C)C1CCC(N(Cc2ccc(C(=O)NCCC(=O)O)cc2)C(=O)Nc2cc(Cl)cc(Cl)c2)CC1` (stereo not shown) [Example 104, 3-{4-[1-(4-tert-Butylcyclohexyl)-3-(3,5-dichlorophenyl)ureidomethyl]benzoylamino)propionic acid], the IC50 is 50 nM. Regarding `CCCCc1ccc(N(Cc2ccc(C(=O)NCCC(=O)O)cc2)C(=O)Nc2ccc(OC(F)(F)F)cc2)cc1` [drawing 1186], the 50% inhibitory concentration (IC50) came to 13 nM.

Staying with this experiment, now noted: screened at 1 μM; library compounds; read-out: displacement of the glucagon tracer when screened at 1 μM concentration in the glucagon binding assay II.
For `CC(C)(C)C1CCC(N(Cc2ccc(C(=O)Nc3nnn[nH]3)cc2)C(=O)Nc2ccc(Cl)cc2)CC1` (stereo not shown) [Example 159, 4-[1-(4-tert-Butylcyclohexyl)-3-(4-chlorophenyl)ureidomethyl]-N-(1H-tetrazol-5-yl)benzamide], the inhibition at 1 µM is > 50%.

In the case of `O=C(O)CCNC(=O)c1ccc(CN(CCC(c2ccccc2)c2ccccc2)Cc2ccc(C(F)(F)F)cc2)s1` [Example 142, 3-(5-{[(3,3-Diphenylpropyl)-(4-trifluoromethylbenzyl)amino]methyl}thiophene-2-carbonylamino)propionic acid], the inhibition at 1 µM is > 50%.

Take `O=C(O)CCNC(=O)c1ccc(CN(CCc2ccccc2)Cc2ccc(Oc3ccccc3)cc2)s1` [Example 146, 3-(5-{[(2-Phenylethyl)-(4-phenoxybenzyl)amino]methyl}thiophene-2-carbonylamino)propionic acid]: the inhibition at 1 µM was > 50%.

For the compound `CC(=O)N1CCc2cc(N(Cc3ccc(C(=O)NCCC(=O)O)cc3)C(=O)NCOc3ccc4ccccc4c3)ccc21` [Example 206, 3-{4-[1-(1-Acetyl-2,3-dihydro-1H-indol-5-yl)-3-(naphthalen-2-yloxymethyl)ureidomethyl]benzoylamino}propionic acid], the inhibition at 1 µM is > 50%. For `COc1cc(CN(Cc2ccc(C(=O)NCCC(=O)O)cc2)C(=O)Nc2ccc3c(c2)OCO3)ccc1O` [Example 122, 3-{4-[1-(4-Hydroxy-3-methoxybenzyl)-3-(3,4-methylenedioxyphenyl)ureidomethyl]benzoylamino)propionic acid], the inhibition at 1 µM was > 50%.

As for `CC(C)(C)C1CCC(N(Cc2ccc(C(=O)NCCC(=O)O)cc2)C(=O)Nc2ccc(C(=O)O)cc2)CC1` (stereo not shown) [Example 196, 4-{3-(4-tert-Butylcyclohexyl)-3-[4-(2-carboxyethylcarbamoyl)benzyl]ureido}benzoic acid], the inhibition at 1 µM is > 50%. As for `O=C(O)CCNC(=O)c1ccc(CN(C(=O)Nc2cccc(SC(F)(F)F)c2)c2ccc(C3CCCCC3)cc2)o1` [Example 210, 3-({5-[1-(4-cyclohexylphenyl)-3-(3-trifluoromethylsulfanylphenyl)ureidomethyl]furan-2-carbonyl}amino)propionic acid], the inhibition at 1 µM was > 50%.

`CC(C)(C)C1CCC(N(Cc2ccc(C(=O)Nc3ccc4c(c3)OCCO4)cc2)C(=O)Nc2ccc(Cl)cc2)CC1` (stereo not shown) [Example 160, 4-[1-(4-tert-Butylcyclohexyl)-3-(4-chlorophenyl)ureidomethyl]-N-(2,3-dihydro-1,4-benzodioxin-6-yl)benzamide]: the inhibition at 1 µM was > 50%.

As to `Cc1cc(C)cc(NC(=O)N(Cc2ccc(C(=O)NCCC(=O)O)cc2)C2CCC(C(C)(C)C)CC2)c1` (stereo not shown) [Example 197, 3-{4-[1-(4-tert-Butylcyclohexyl)-3-(3,5-dimethylphenyl)ureidomethyl]benzoylamino}propionic acid], the inhibition at 1 µM was > 50%.

As for `CCCCOc1ccc(NC(=O)N(Cc2ccc(C(=O)NCCC(=O)O)s2)Cc2ccccc2OC(F)(F)F)cc1` [Example 125, 3-{5-[1-(2-Trifluoromethoxybenzyl)-3-(4-butoxyphenyl)ureidomethyl]thiophene-2-carbonylamino)propionic acid], the inhibition at 1 µM is > 50%. Turning to `O=C(O)CCNC(=O)c1ccc(CN(C(=O)Nc2ccc(OC(F)(F)F)cc2)C2C[C@H]2c2ccccc2)cc1` (stereo in doubt) [Example 187, 3-{4-[1-(2-Phenylcyclopropyl)-3-(4-trifluoromethoxyphenyl)ureidomethyl]benzoylamino}propionic acid], the inhibition at 1 µM is > 50%. For `CN1C(=O)c2ccc(NC(=O)N(Cc3ccc(C(=O)NCCC(=O)O)cc3)C3CCC(C(C)(C)C)CC3)cc2C1=O` (stereo not shown) [Example 209, 3-{4-[1-(4-tert-Butylcyclohexyl)-3-(2-methyl-1,3-dioxo-2,3-dihydro-1H-isoindol-5-yl)ureidomethyl]benzoylamino}propionic acid], the inhibition at 1 µM was > 50%. As for `O=C(O)CCNC(=O)c1ccc(CN(C(=O)Nc2ccc(OC(F)(F)F)cc2)c2ccc3nc(S)sc3c2)cc1` [Example 182, 3-{4-[1-(2-Mercaptobenzothiazol-6-yl)-3-(4-trifluoromethoxyphenyl)ureidomethyl]benzoylamino}propionic acid], the inhibition at 1 µM was > 50%. On to `O=C(O)CCCOc1ccc(CN(C(=O)Nc2ccc(OC(F)(F)F)cc2)C2C[C@H]2c2ccccc2)cc1` (stereo in doubt) [Example 222, 4-{4-[1-(2-Phenylcyclopropyl)-3-(4-trifluoromethoxyphenyl)ureidomethyl]phenoxy}butyric acid], for which the inhibition at 1 µM was > 50%. Consider `CC(C)(C)C1CCC(N(Cc2ccc(C(=O)NCCC(=O)O)cc2)C(=O)NC2CC2c2ccccc2)CC1` (stereo not shown) [Example 132, 3-{4-[1-(4-tert-Butylcyclohexyl)-3-(2-phenylcyclopropyl)ureidomethyl]benzoylamino)propionic acid], for which the inhibition at 1 µM is > 50%.
